Measured values published in patent US20090162413A1 (priority 1998, published 2009).
Blank lines part the entries; values can stand above or below the molecule they belong to.

Legend:
[1] = cynomolgus monkey, in vivo, iv, 2.5 mg/kg
[2] = test system: human coronary artery smooth muscle cells (hCaSMC); assay: 3H-thymidine uptake proliferation assay, hCaSMC; format: cell-based
Protocol: Experiments were performed to investigate interactions between zotarolimus (ABT-578) and paclitaxel when administered in combination. The effects of paclitaxel and zotarolimus on the anti-proliferative activity of human coronary artery smooth muscle ([…]) and endothelial […] determined using an in vitro proliferation assay. The proliferation and migration of vascular smooth muscle cells into the vascular neointima is a characteristic pathologic response seen in restenotic lesions (Lafont and Libby, 1998). As a result, in vitro assays which specifically measure the anti-proliferative activity of candidate anti-restenotic compounds on human coronary artery smooth muscle and endothelial cells predict potential anti-restenotic activity in vivo. Compounds or combinations of compounds which attenuate growth factor-mediated human coronary artery smooth muscle cell ([…]) proliferation, as measured by the tritium incorporation assay in vitro, are candidate anti-restenotic agents. The tritium incorporation assay is an accurate and sensitive method to determine cell number and proliferation. […] The attenuation of zotarolimus's anti-proliferative activity by tacrolimus is a clear example of this effect (FIG. 10A). To determine the potential anti-restenotic activity of combinations of zotarolimus and paclitaxel, the proliferation of […] was measured in the presence of each compound and in combination. To determine if paclitaxel attenuated or augmented the activity of zotarolimus the effect of paclitaxel and zotarolimus alone and in combination on growth-factor induced proliferation was determined. Data were analyzed for additivity using an isobologram approach and a combination index analysis. An isobologram is a Cartesian plot of pairs of doses that, in combination, yield a specified level of effect. It is a convenient way of graphically displaying results of drug-combination and similar studies, because paired values of experimental points that fall below or above the line connecting the axial points indicate synergistic and non-synergistic interactions, respectively. Cell proliferation was monitored by following incorporation of ^3H-thymidine into newly synthesized DNA of cells stimulated by serum and growth factors. Exponentially growing […] were seeded into 96-well flat bottom tissue culture plates at 5,000 cells/well (10,000 cells/well for […]). The cells were allowed to attach overnight. The growth medium was removed the following day, and cells were washed twice with un-supplemented (basal) medium to remove traces of serum and growth factors. […] PerkinElmer; Wellesley; MA) was added to each filter well and the plates were counted using a TopCount microplate scintillation counter (PerkinElmer). […]

Human MLR = assay: human mixed lymphocyte reaction (MLR) assay; format: cell-based; settings: read-out: Human MLR IC50 ± S.E.M.
[3] = test system: human coronary artery endothelial cells (hCaEC); assay: 3H-thymidine uptake proliferation assay, hCaEC; format: cell-based
Protocol: Experiments were performed to investigate interactions between zotarolimus (ABT-578) and paclitaxel when administered in combination. The effects of paclitaxel and zotarolimus on the anti-proliferative activity of human coronary artery smooth muscle ([…]) and endothelial […] determined using an in vitro proliferation assay. The proliferation and migration of vascular smooth muscle cells into the vascular neointima is a characteristic pathologic response seen in restenotic lesions (Lafont and Libby, 1998). As a result, in vitro assays which specifically measure the anti-proliferative activity of candidate anti-restenotic compounds on human coronary artery smooth muscle and endothelial cells predict potential anti-restenotic activity in vivo. To determine if paclitaxel attenuated or augmented the activity of zotarolimus the effect of paclitaxel and zotarolimus alone and in combination on growth-factor induced proliferation was determined. Data were analyzed for additivity using an isobologram approach and a combination index analysis. An isobologram is a Cartesian plot of pairs of doses that, in combination, yield a specified level of effect. It is a convenient way of graphically displaying results of drug-combination and similar studies, because paired values of experimental points that fall below or above the line connecting the axial points indicate synergistic and non-synergistic interactions, respectively. Cell proliferation was monitored by following incorporation of ^3H-thymidine into newly synthesized DNA of cells stimulated by serum and growth factors. Exponentially growing […] were seeded into 96-well flat bottom tissue culture plates at 5,000 cells/well (10,000 cells/well for […]). The cells were allowed to attach overnight. […] PerkinElmer; Wellesley; MA) was added to each filter well and the plates were counted using a TopCount microplate scintillation counter (PerkinElmer). […] The concentration eliciting a specific anti-proliferative effect was determined using a four-parameter equation (equation 1): […]

[4] = accelerated in vitro elution from PC1036 coated drug-loaded stents (Example 10); format: physicochemical; settings: stents with 10 μg/mm zotarolimus alone or with paclitaxel

AUC [1]: 2.55 ng·h/mL
Molecule: 40-epi-N-[2′-pyridone]-rapamycin [Example 2-pyridone]

AUC [1]: 5.59 ng·h/mL
Molecule: COC1CC2CCC(C)C(O)(O2)C(=O)C(=O)N2CCCCC2C(=O)OC(C(C)CC2CCC(n3ccc(=O)cc3)C(OC)C2)CC(=O)C(C)C=C(C)C(O)C(OC)C(=O)C(C)CC(C)C=CC=CC=C1C (stereo not drawn) [Example 4-pyridone, 40-epi-N-[4′-pyridone]-rapamycin]

Molecule: C=CC[C@@H]1/C=C(\C)C[C@H](C)C[C@H](OC)[C@H]2O[C@@](O)(C(=O)C(=O)N3CCCC[C@H]3C(=O)O[C@H](/C(C)=C/[C@@H]3CC[C@@H](O)[C@H](OC)C3)[C@H](C)[C@@H](O)CC1=O)[C@H](C)C[C@@H]2OC [tacrolimus]
effect on the anti-proliferative activity of zotarolimus ([2]; smooth muscle cells in vitro, FIG. 10A): blocks the anti-proliferative activity of zotarolimus

IC50 (Human MLR): 0.91 ± 0.36 nM
Molecule: CO[C@H]1C[C@@H]2CC[C@@H](C)[C@@](O)(O2)C(=O)C(=O)N2CCCC[C@H]2C(=O)O[C@H]([C@H](C)C[C@@H]2CC[C@@H](O)[C@H](OC)C2)CC(=O)[C@H](C)/C=C(\C)[C@@H](O)[C@@H](OC)C(=O)[C@H](C)C[C@H](C)/C=C/C=C/C=C/1C [Rapamycin]

effect on the elution profile of zotarolimus [4]: little effect
Molecule: CC(=O)O[C@H]1C(=O)[C@@]2(C)[C@H]([C@H](OC(=O)c3ccccc3)[C@]3(O)C[C@H](OC(=O)[C@H](O)[C@@H](NC(=O)c4ccccc4)c4ccccc4)C(C)=C1C3(C)C)[C@]1(OC(C)=O)CO[C@@H]1C[C@@H]2O [PAC, paclitaxel]
IC50 ([3]; Homo sapiens, Endothelial cell, read-out: hCaEC IC50 Mean ± SEM): 4.6 ± 0.3 nM | effect on the inhibition of proliferation by zotarolimus ([3]; hCaEC, FIG. 10C): not blocked | IC50 ([2]; Homo sapiens, read-out: hCaSMC IC50 Mean ± SEM): 3 ± 0.5 nM | effect on the inhibition of proliferation by zotarolimus ([2]; hCaSMC, FIG. 10B): not blocked
